The nature of data set [1]: Bleach Stability Test (triangle test after storage with perborate and TAED). The data set is classed as physicochemical. The conditions noted are these: number of 20 assessors correctly choosing odd one out; 0.2% material in powder with perborate and TAED, 45° C. one week; up to 9 = bleach-stable, 10 or more = unstable. On the procedure:
(i) dosing a perfume material into the standard unperfumed washing powder and incubating the dosed powder at 20° C. in a sealed container for seven days;
(ii) dividing the dosed powder into two portions and adding to each portion sodium perborate tetrahydrate together with either TAED granules or sodium sulphate (to act as an inert filler in place of TAED) to provide test and control formulations having the following constitution: […]
(iii) incubating both test and control powders in sealed containers at 45° C. for a further seven days; and
(iv) assessing samples of the test and control powders according to a standard triangle test as described in "Manual on Sensory Testing Methods" published by the American Society for Testing and Materials (1969), using a panel of 20 assessors, who are instructed to judge by smell which of the three powder samples is the odd one out, the perfume material being designated a bleach-stable deodorant perfume component when the odd one out is correctly identified by no more than 9 of the 20 assessors.
The stability of perfume materials to the presence of a bleaching composition is assessed according to a standard test which involves the exposure of these individual perfume materials to a mixture of sodium perborate tetrahydrate and TAED in a detergent fabric washing powder under standard conditions of storage.
In order to perform this test, a detergent powder base is prepared according to a standard blowing technique to form a granulated product. The formulation of the detergent powder base is as follows: […]
A selected perfume material is then incorporated by mixing with a portion of the blown base powder to a final concentration of 0.2% by weight of the finished product, and stored at 20° C. in a sealed container for one week with occasional mixing to ensure an even concentration of the perfume material throughout the powder. The sample is the split into two portions and further ingredients mixed in to provide the following test and control formulations:
100 g samples of each control and test batch of powder containing a selected perfume material are then sealed in containers and stored at 45° C. for one week. Each sample is then assessed in a forced choice triangle test according to the following procedure:
Three samples of powder, either one from the test batch and two from the control batch, or two from the test batch and one from the control batch are then assessed by a panel of 20 assessors who are asked to select by sniffing which of the three samples is the "odd one out".
The fragrance of samples containing bleach-stable perfume materials should be unchanged following incubation in the presence of the perborate and TAED, and accordingly there is a 1 in 3 chance of an assessor selecting correctly the control or test sample as the "odd one out".
The Triangle Test procedure is described and discussed in "Manual on Sensory Testing Methods" published by the American Society for Testing and Materials (1969).
The results of each Triangle Test are calculated as follows: […]
If 10 or more of the 20 assessors choose correctly the "odd one out" of the three samples, then the perfume material under test is judged to be unstable in the presence of bleach. If, however, up to 9 of the 20 accessors choose correctly the "odd one out" of 3 samples, then the perfume material under test is judged to be stable in the presence of bleach.

Data set [2] can be described thus: Morpholine Test (depression of partial vapour pressure of morpholine, Raoult Variance Ratio). The conditions noted are these: morpholine 0.25 g + material 1 g, 37° C., headspace GC.
Data set [3] addresses T1, lipoxidase (EC1.13.1.13) (Glycine max, UniProt P08170).
T1 sequence (P08170 1-839): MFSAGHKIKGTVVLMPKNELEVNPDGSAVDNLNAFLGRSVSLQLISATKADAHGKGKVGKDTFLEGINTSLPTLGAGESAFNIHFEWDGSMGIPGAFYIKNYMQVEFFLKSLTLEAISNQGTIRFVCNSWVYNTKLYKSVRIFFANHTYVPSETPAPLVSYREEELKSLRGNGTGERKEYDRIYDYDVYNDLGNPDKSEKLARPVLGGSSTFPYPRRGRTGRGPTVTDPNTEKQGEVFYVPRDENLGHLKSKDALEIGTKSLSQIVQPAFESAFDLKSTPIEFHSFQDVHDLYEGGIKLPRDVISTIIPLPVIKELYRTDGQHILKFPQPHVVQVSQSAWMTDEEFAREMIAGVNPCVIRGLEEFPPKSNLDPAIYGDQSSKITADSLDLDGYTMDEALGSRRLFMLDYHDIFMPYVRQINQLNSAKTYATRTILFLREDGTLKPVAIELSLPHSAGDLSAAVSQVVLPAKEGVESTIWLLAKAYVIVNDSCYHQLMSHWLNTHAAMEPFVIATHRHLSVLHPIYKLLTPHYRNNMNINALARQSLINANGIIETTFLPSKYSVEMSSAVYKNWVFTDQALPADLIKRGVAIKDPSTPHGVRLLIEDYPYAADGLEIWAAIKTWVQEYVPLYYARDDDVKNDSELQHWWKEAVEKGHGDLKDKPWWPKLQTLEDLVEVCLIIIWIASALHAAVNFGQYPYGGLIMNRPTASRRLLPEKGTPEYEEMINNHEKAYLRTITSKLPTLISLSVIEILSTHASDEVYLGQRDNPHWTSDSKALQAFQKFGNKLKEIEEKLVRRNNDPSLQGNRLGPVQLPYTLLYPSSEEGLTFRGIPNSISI
Nature of the data set: Lipoxidase Test (inhibition of oxidation of linoleic acid by lipoxidase). The data set is classed as biochemical. The conditions noted are these: test substrate made with 0.5% by weight solution of material in ethanol; for inhibition at 0.5 % strength: borate buffer pH 9.0, 234 nm, read-out: LIC value (Lipoxidase-Inhibiting Capacity); for LIC value (Lipoxidase-Inhibiting Capacity): % inhibition, borate buffer pH 9.0, 234 nm.

In the case of `CCOc1cc(C=O)ccc1O` [Ethyl vanillin], the BST panel score in data set [1] is 12. The “RVR value (Raoult Variance Ratio)” value in data set [2] is recorded as 1.43.

As for `CC(=O)OC1CCC(C(C)(C)C)CC1` (stereo not drawn) [p-t-Butyl cyclohexyl acetate], the BST panel score in data set [1] was 10. The “RVR value (Raoult Variance Ratio)” value in data set [2] was determined as 0.98.

In data set [1], `CC(C)CCOC(=O)c1ccccc1O` [iso-Amyl salicylate] came in with a BST panel score of 9. For the same compound, the “RVR value (Raoult Variance Ratio)” value in data set [2] came out at 1.24.

As for `OCCc1ccccc1` [Phenylethyl alcohol], the BST panel score in data set [1] came out at 10. Further, the “RVR value (Raoult Variance Ratio)” value in data set [2] was 1.24.

For the compound `CCCCCCCC1CCCC1=O` (stereo not drawn) [2-n-Heptylcyclo-pentanone], the BST panel score in data set [1] is on record as 7. Besides, the “RVR value (Raoult Variance Ratio)” value in data set [2] is recorded as 1.05.

In the case of `CC(=O)OC1CCCCC1C(C)(C)C` (stereo not drawn) [o-t-Butylcyclohexyl acetate], in data set [1], the BST panel score stood at 8. In data set [2], the “RVR value (Raoult Variance Ratio)” value came to 1.08.

In data set [1], `CCOC(=O)c1ccccc1C(=O)OCC` [Diethyl phthalate] had a BST panel score of 4. In data set [2], the “RVR value (Raoult Variance Ratio)” value stood at 1.20.

Turning to `O=c1ccc2ccccc2o1` [Coumarin], in data set [1], the BST panel score turned out to be 10. Besides, in data set [2], the “RVR value (Raoult Variance Ratio)” value was 1.22.

Turning to `CC(C)Cc1ccc2ncccc2c1` [iso-Butyl quinoline], the BST panel score in data set [1] turned out to be 5. The “RVR value (Raoult Variance Ratio)” value in data set [2] came out at 1.10.

Regarding `CCCCCCOC(=O)c1ccccc1O` [Hexyl salicylate], the inhibition at 0.5 % strength in data set [3] was determined as 100%. The BST panel score in data set [1] came out at 5.

As for `COC(=O)c1ccccc1N` [Methyl anthranilate], the inhibition at 0.5 % strength in data set [3] was 69%. The BST panel score in data set [1] is 6. Moreover, in data set [2], the “RVR value (Raoult Variance Ratio)” value is 1.20.

In turn, `CC(C=O)Cc1ccc(C(C)(C)C)cc1` (stereo not drawn) [p-t-Butyl-α-methyl hydrocinnamic aldehyde] displayed a BST panel score in data set [1] of 13.

With `CC(=O)c1ccc2ccccc2c1` [β-Methyl naphthyl ketone], in data set [1], the BST panel score is listed as 3. In data set [2], the “RVR value (Raoult Variance Ratio)” value is listed as 0.96.

On to Hydroxymethyl isopropyl cyclopentane, for which the “LIC value (Lipoxidase-Inhibiting Capacity)” value in data set [3] was 60%. The compound also yielded a BST panel score in data set [1] of 8. Moreover, in data set [2], the “RVR value (Raoult Variance Ratio)” value came to 1.23.

Turning to `CCCCCCC(CCOC(C)=O)OC(C)=O` (stereo not drawn) [Nonanediol-1,3-diacetate], in data set [1], the BST panel score is recorded as 8. Further, in data set [2], the “RVR value (Raoult Variance Ratio)” value came out at 1.17.

On to i-Nonyl acetate, for which the “LIC value (Lipoxidase-Inhibiting Capacity)” value in data set [3] was determined as 50%. The compound also returned a BST panel score in data set [1] of 4. Moreover, the “RVR value (Raoult Variance Ratio)” value in data set [2] stood at 0.83.

In turn, `OC/C=C/c1ccccc1` [Cinnamic alcohol] returned a BST panel score in data set [1] of 9. Besides, the “RVR value (Raoult Variance Ratio)” value in data set [2] is listed as 1.28.

Turning to `CCC(C)(C)C1CCC(=O)CC1` [p-t-Amyl cyclohexanone], the BST panel score in data set [1] was 8. The “RVR value (Raoult Variance Ratio)” value in data set [2] is given as 1.10.

Take `CCOC(=O)c1ccccc1O` [Ethyl salicylate]: in data set [1], the BST panel score came out at 7. Further, in data set [2], the “RVR value (Raoult Variance Ratio)” value was 1.19.

`CC(=O)C(C)=CC1C(C)=CCCC1(C)C` (stereo not drawn) [α-iso-Methyl ionone] gave a BST panel score in data set [1] of 7.

For `Cc1ccc(C(C)C)cc1O` [Carvacrol], the BST panel score in data set [1] was found to be 6. Also, the “RVR value (Raoult Variance Ratio)” value in data set [2] came to 1.43.

As for `C/C=C\c1ccc(O)c(OC)c1` [iso-Eugenol], the BST panel score in data set [1] amounted to 4. Besides, the “RVR value (Raoult Variance Ratio)” value in data set [2] came to 1.48.

For the compound `CC1COCc2cc3c(cc21)C(C)(C)C(C)C3(C)C` (stereo not drawn) [1,3,4,6,7,8-Hexahydro-4,6,6,7,8,8-hexamethyl cyclopenta-α-2-benzopyran], the BST panel score in data set [1] turned out to be 5.

For the compound `CC1(C)CCCC2(C)C1CCC1(C)OCCC12` (stereo not drawn) [3a-Methyl-dodecahydro-6,6,9a-trimethylnaphtho-2(2,1-b)furan], the BST panel score in data set [1] came out at 5. The “RVR value (Raoult Variance Ratio)” value in data set [2] was found to be 1.30.

In the case of i-Nonyl formate, the “LIC value (Lipoxidase-Inhibiting Capacity)” value in data set [3] is recorded as 19%. In data set [1], this compound returned a BST panel score of 8. For the same compound, the “RVR value (Raoult Variance Ratio)” value in data set [2] is given as 1.49.

In the case of `CCCCCC1CCC(=O)O1` (stereo not drawn) [Nonanolide-1,4], the BST panel score in data set [1] is given as 5. In addition, the “RVR value (Raoult Variance Ratio)” value in data set [2] came out at 0.87.

On to Dimyrcetol, for which the “LIC value (Lipoxidase-Inhibiting Capacity)” value in data set [3] was determined as 16%. Further, in data set [1], the BST panel score is reported as 9. Moreover, the “RVR value (Raoult Variance Ratio)” value in data set [2] amounted to 1.22.

In turn, `O=C(OCc1ccccc1)c1ccccc1O` [Benzyl salicylate] yielded a BST panel score in data set [1] of 17. For the same compound, the “RVR value (Raoult Variance Ratio)” value in data set [2] worked out at 1.58.

Take Tetrahydromuguol: the “LIC value (Lipoxidase-Inhibiting Capacity)” value in data set [3] worked out at 24%. The BST panel score in data set [1] turned out to be 8. Besides, the “RVR value (Raoult Variance Ratio)” value in data set [2] is 1.23.

For `O=C(Cc1ccccc1)OCCc1ccccc1` [Phenylethyl phenyl acetate], the BST panel score in data set [1] was found to be 7. The “RVR value (Raoult Variance Ratio)” value in data set [2] is given as 1.22.
